Assay: gradient 5% acetonitrile 3 min, to 50% in 2 min, to 85% in 15 min, held 3 min, 100 µL/min
Conditions: column: Zorbax Extend-C18 2.1 x 50 mm; eluents: water / acetonitrile, 0.1% formic acid
Procedure, shortened: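 The system's dead and dwell volumes were 40 μL and 900 μL, with a Zorbax Extend-C18 column (2.1 × 50 mm, 1.8 μm) run at 100 μL/min in water and acetonitrile containing 0.1% formic acid each. Pure standards were analyzed in mixtures of ~100 molecules by HPLC–quadrupole time-of-flight mass spectrometry in positive and negative ionization mode. Retention time was assigned from computationally picked, manually inspected adduct peaks.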

For `O=C(CSc1nc(N2CCCCC2)nc2ccccc12)Nc1ccc2c(c1)OCCO2`, which RP-LC retention time is on record?
Its RP-LC retention time is 690 s.

Which RP-LC retention time does the source give for `COCC(=O)Nc1ccc2c(c1)CCC(=O)N2C` here?
Its RP-LC retention time is 613 s.

For `O=C(Cn1cccc1-c1nc(-c2ccc3c(c2)OCO3)no1)NCc1ccco1`, which RP-LC retention time is on record?
The RP-LC retention time was 906 s.

For `Cc1ccc(-n2c(-c3ccc(Cl)cc3)cn3c4c(=O)n(C)c(=O)n(C)c4nc23)cc1N`, which RP-LC retention time is on record?
Its RP-LC retention time is 870 s.

With `CCc1ccc(NS(=O)(=O)c2c(C)sc(C)c2-c2cc(C(F)(F)F)on2)cc1` as the compound, how does the RP-LC retention time read?
The RP-LC retention time was 1240 s.

For `Cc1cc(-c2nnc(NC(=O)c3cc(Cl)sc3Cl)o2)n(C)n1`, which RP-LC retention time is on record?
The RP-LC retention time was 772 s.

With `Cc1oc2nc3c(c(NC(=O)CN4CCCC4=O)c2c1C)CCCC3` as the compound, how does the RP-LC retention time read?
Its RP-LC retention time is 687 s.

Which RP-LC retention time does the source give for `CC(C)n1c(=O)c2ccccc2n(Cc2nc(-c3ccc(Br)cc3)no2)c1=O` here?
The RP-LC retention time was 1230 s.

For `CCOC(=O)N1CCN(c2ncc(S(=O)(=O)c3ccc(C)c(C)c3)c(N)n2)CC1`, which RP-LC retention time is on record?
Its RP-LC retention time is 891 s.

For `COc1ccc2[nH]c(C)c(CCNS(=O)(=O)c3cc(OC)c(C)cc3OC)c2c1`, which RP-LC retention time is on record?
The RP-LC retention time was 870 s.

For `CCCNC(=O)C1CCN(S(=O)(=O)c2cc(C(=O)N(C)C)cs2)CC1`, which RP-LC retention time is on record?
Its RP-LC retention time is 658 s.

Which RP-LC retention time does the source give for `CCN1C(=O)c2cccnc2Sc2cc(CNC(=O)Cc3ccc(OC)cc3)ccc21` here?
The RP-LC retention time was 742 s.

For `O=C(O)c1cc(-c2cccs2)n(C2CCS(=O)(=O)C2)n1` (configuration not stated), which RP-LC retention time is on record?
Its RP-LC retention time is 630 s.

With `CCCN(Cc1cccs1)C(=O)C1CCc2nc(N3CCC(C)CC3)ncc2C1` (configuration not stated) as the compound, how does the RP-LC retention time read?
Its RP-LC retention time is 979 s.

Which RP-LC retention time does the source give for `COCC(=O)N1CCCC(c2nc(CNC(=O)C3CCC3)cs2)C1` (configuration not stated) here?
Its RP-LC retention time is 597 s.

Which RP-LC retention time does the source give for `CCC(=O)Nc1ccc(CCc2nc3ccc(C(=O)NCc4ccc(SC)cc4)cc3[nH]2)cc1` here?
Its RP-LC retention time is 683 s.

Which RP-LC retention time does the source give for `CSc1ccc(-c2nc3ncccn3c2Nc2cc(C)ccc2C)cc1` here?
Its RP-LC retention time is 864 s.

For `O=c1n(Cc2ccc(F)cc2)nc2ccc(S(=O)(=O)N3CCOCC3)cn12`, which RP-LC retention time is on record?
Its RP-LC retention time is 785 s.

Which RP-LC retention time does the source give for `O=C(c1ccc(Cl)nc1)c1cccs1` here?
Its RP-LC retention time is 897 s.

With `Cc1c(C(=O)NC2CCCCCC2)sc2ncn(CC(=O)N3CC(C)CC(C)C3)c(=O)c12` (configuration not stated) as the compound, how does the RP-LC retention time read?
Its RP-LC retention time is 1070 s.

Which RP-LC retention time does the source give for `Cc1nc(C)c(C(=O)N2CCCC(n3c(C)cnc3C3CCC3)C2)s1` (configuration not stated) here?
The RP-LC retention time was 591 s.

For `Cc1ccccc1CNC(=O)C1(C)CCCN(C(=O)Nc2ccc(Br)cc2F)C1` (configuration not stated), which RP-LC retention time is on record?
Its RP-LC retention time is 869 s.

For `COc1ccccc1N1CCN(CCn2c(=O)c3c(c4ccccc4n3C)n(C)c2=O)CC1`, which RP-LC retention time is on record?
Its RP-LC retention time is 784 s.

Which RP-LC retention time does the source give for `CCOc1ccc(CCNC(=O)C2CCCN(C(=O)c3cc(C)cc(C)c3)C2)cc1OCC` (configuration not stated) here?
Its RP-LC retention time is 920 s.

With `CCCOc1nc2ccccc2nc1N1CCCC(C(=O)NC2CCCC2)C1` (configuration not stated) as the compound, how does the RP-LC retention time read?
The RP-LC retention time was 1180 s.

For `Cc1ccc(Cn2cccc2C(=O)C(=O)N2CCN(c3ccccn3)CC2)cc1`, which RP-LC retention time is on record?
The RP-LC retention time was 690 s.

For `COCCNc1c(-c2cccc(F)c2)nc2sc(C(=O)NC(C)C)c(C)n12`, which RP-LC retention time is on record?
Its RP-LC retention time is 835 s.

For `O=C(Cn1ccnc1-c1ccnc(N2CCCC2)c1)NC1CCCCC1`, which RP-LC retention time is on record?
The RP-LC retention time was 595 s.

Which RP-LC retention time does the source give for `Cc1ccc(/C=C/S(=O)(=O)N2CCN(c3ccc(-c4cccs4)nn3)CC2)cc1` here?
Its RP-LC retention time is 929 s.

Which RP-LC retention time does the source give for `CC1=NOC(C)(CNC(=O)NC2CCCCC2)C1` (configuration not stated) here?
The RP-LC retention time was 659 s.

Which RP-LC retention time does the source give for `COCCNC(=O)N1CCCN(C2=NS(=O)(=O)C(c3ccc(Cl)cc3)=C2C)CC1` here?
The RP-LC retention time was 718 s.

Which RP-LC retention time does the source give for `Cc1oc(-c2ccc(Cl)cc2)nc1Cn1nnc(C(=O)Nc2cc(F)ccc2F)c1C` here?
The RP-LC retention time was 1310 s.

For `O=C(Cn1cccc1-c1nc(-c2ccc3c(c2)OCO3)no1)N1CCc2ccccc21`, which RP-LC retention time is on record?
The RP-LC retention time was 1090 s.

With `Cn1c(N2CCCC(C(=O)Nc3ccccc3)C2)cc(=O)n(C)c1=O` (configuration not stated) as the compound, how does the RP-LC retention time read?
The RP-LC retention time was 649 s.

With `CCOC(=O)c1c(C)oc2nc(C)nc(NCCCN3CCN(c4cccc(C)c4)C(C)C3)c12` (configuration not stated) as the compound, how does the RP-LC retention time read?
Its RP-LC retention time is 778 s.

With `O=C(Cc1ccc(F)cc1)N1CCN(Cc2nc(C3CC3)cs2)CC1` as the compound, how does the RP-LC retention time read?
Its RP-LC retention time is 610 s.

Which RP-LC retention time does the source give for `Nc1cc(C2CCN(C(=O)Nc3ccccc3Br)CC2)no1` here?
The RP-LC retention time was 706 s.

From the METLIN SMRT retention time set (Domingo-Almenara et al. 2019)
